These results are taken from a melting point compilation (Tetko et al.; mined from patent text by program, amines drawn as free bases though some values may be those of a salt).

As usually defined, the melting point is the temperature of the solid-liquid transition. For `COc1cc(OCc2ccncc2)ccc1/C=C/c1cc(/C=C/c2cccc3cc[nH]c23)n[nH]1`, the melting point lay in the range of 201 to 206 °C.

Compound `Cc1oc(-c2ccccc2)nc1CC=Cc1ccc(CCC2OC(=O)NC2=O)cc1` (configuration not stated) displayed a melting point of 175 to 176 °C.

The compound `CC#CCOc1ccc(S(=O)(=O)C(C(=O)NO)C2CCN(C(=O)OC(C)(C)C)CC2)cc1` (configuration not stated) gave a melting point of 80 °C.

`C=CCOc1ccc(-c2c(OC(C)C)cccc2C(=O)O)c(OC)c1`: the melting point fell in the range of 101 to 103 °C.

The compound `COC1CCc2c(cc(-c3ccccc3)n2-c2ccc(O)c(C(=O)O)c2)C1` (configuration not stated) returned a melting point of 207 to 210 °C.

The compound `COC(=O)c1ccc2oc(-c3ccc(OC)cc3)cc2c1` yielded a melting point of 157 to 159 °C.

Regarding `Nc1nc2ccc(S(=O)(=O)n3c(CCC(=O)O)cc4nc(Cl)ccc43)cc2s1`, the melting point was greater than 260 °C.

Compound `Cc1ccc(-c2c(C(=O)NCc3cc(C(F)(F)F)cc(C(F)(F)F)c3)n(CCO)c(=O)c3ncccc23)cc1` registered a melting point of 123 to 125 °C.

As to `Cc1cc(S(N)(=O)=O)ccc1NC(=O)CNc1ccccc1`, the melting point was in the range of 195 to 196 °C.

For `N#Cc1ccc(NC(=S)Nc2ccc(NNC=O)cc2)cc1`, the melting point was in the range of 180 to 182 °C.

Compound `CNC(=O)OCc1c(COC(=O)NC)c2n(c1C)-c1ccccc1C2` displayed a melting point of 86 to 88 °C.

For the compound `O=C(CCC(F)(F)F)c1c(O)c2cccnc2n(-c2ccccc2)c1=O`, the melting point was 217 to 220 °C.

Take `COc1cc(Br)c(C(C)=O)cc1O`: the melting point fell in the range of 110 to 111 °C.

As for `Cc1cccc(Sc2ccc3c(c2)CCC2N(C)C(=O)CCC32C)c1` (single isomer, unassigned; (+)), the melting point was 103 to 104 °C.

As for `CS(=O)(=O)c1ccc(-n2ncc(C#N)c2-c2ccc(-c3ccco3)cc2)cc1F`, the melting point was 153 to 157 °C.

The compound `C=C1c2c(C)cccc2NC(=O)N1CC(=O)OCC` yielded a melting point of 151 to 154 °C.

With `Cc1ccccc1C(=O)c1nc(Cl)ccc1[N+](=O)[O-]`, the melting point was 111 to 112 °C.

For `COc1cccc(NC(NC(C)C(C)(C)C)=C(C#N)S(=O)(=O)C(C)C)c1` (configuration not stated), the melting point lay in the range of 59 to 62 °C.

As to `CC(C)(C)c1cc(C(O)C#Cc2ccc(C(=O)O)cc2)ccc1N1CCCCC1` (configuration not stated), the melting point worked out at 112 °C.

Turning to `OC(c1ccc(Cl)cc1)(c1ccccc1F)C1CO1` (configuration not stated), the melting point was in the range of 120 to 122 °C.

`CNC(=C[N+](=O)[O-])NCCCCOc1cccc(CCN(C)C)c1`: the melting point was in the range of 59 to 63 °C.

`CCS(=O)CC(=C1NCCCS1)[N+](=O)[O-]` (configuration not stated) had a melting point of 102 to 104 °C.

Compound `CCCCc1nc(O)c(CC(=O)OCC)c(=O)n1Cc1ccc(C(=O)OC)cc1` showed a melting point of 170 °C.

`Brc1ccc(-c2cc3c(ccc4ccccc43)o2)cc1`: the melting point lay within 154 to 155 °C.

Turning to `CCCOc1ccccc1C1C(C(=O)OCC)=C(CCC)Nc2n[nH]cc21` (configuration not stated), the melting point came to 205 °C.

As for `O=C(CCl)c1ccc(OCc2nnn[nH]2)cc1`, the melting point lay in the range of 194 to 196 °C.

`COC(=O)COc1cccc2c1CCCC2=O`: the melting point lay within 82 to 83 °C.

Consider `O=C1CCc2cc(Br)ccc2O1`, for which the melting point lay within 103 to 105 °C.

As for `CC(C)(C)OC(=O)CN(CBr)C(=O)c1ccccc1`, the melting point was 98 to 102 °C.

The compound `Cc1ccc(Cc2cnc(NCCCNc3ncccc3Cl)[nH]c2=O)cn1` displayed a melting point of 91 to 94 °C.

For `O=C(O)c1cn(-c2cc([N+](=O)[O-])c(F)cc2F)c2c(F)c(F)c(F)cc2c1=O`, the melting point lay within 245 to 255 °C.

As for `COc1ccc(C(=O)Nc2nc3ccc(N4CCN(C)CC4)cc3c(NCc3ccccc3)c2C#N)cc1`, the melting point was 173 °C.

Compound `Fc1cc2ccc(CBr)nc2cc1F` registered a melting point of 113 to 115 °C.

With `C=CCN(CC=C)C(=O)C(C#N)(CC)c1ccccc1` (configuration not stated), the melting point lay within 33 to 35 °C.

`O=[N+]([O-])N=C1NCCCN1Cc1ccc(Cl)nc1` displayed a melting point of 113 to 117 °C.

Turning to `O=C1CC2(C(=O)N1)C(=O)N(Cc1ccc(Br)cc1)c1ccccc12` (configuration not stated), the melting point was 218 to 220 °C.

In turn, `C=CC(=O)OCc1cn(CCCCCCCCCCCCCCCC)nn1` had a melting point of 72 to 73 °C.

In turn, `COc1ccc2c(c1OCC#N)CCCC2` displayed a melting point of 50 to 51 °C.

In turn, `O=C1CCC(N2Cc3c(CNC(=O)Nc4cccc(Cl)c4)cccc3C2=O)C(=O)N1` (configuration not stated) had a melting point of 250 to 252 °C.

`O=C(NC1CCCCC1)NS(=O)(=O)c1ccc(CCNC(=O)N2CCC3=C(CCCC3)C2=O)cc1` had a melting point of 176 to 177 °C.

Compound `Cc1ccnc(NCCSCc2nc[nH]c2C)c1C(=O)O` came in with a melting point of 143 °C.

Take `O=[N+]([O-])c1ccc(OCC(F)(F)F)c([N+](=O)[O-])c1`: the melting point fell in the range of 76 to 77 °C.

`CCCNCC1Cc2cc(F)cc(-c3c(Cl)cccc3Cl)c2O1` (configuration not stated) gave a melting point greater than 250 °C.

Turning to `Nc1ncc(CN2CC=C(c3ccc(F)cc3)CC2)c(N)n1`, the melting point is 265 °C.

Turning to `O=C(O)Cc1cccc(OCCCCc2cc(-c3ccc(C(F)(F)F)cc3)no2)c1`, the melting point lay in the range of 134 to 135 °C.

Consider `CC1(C)[C@H](Cc2noc(C3CCCCC3)n2)CC[C@]1(C)NCC(=O)N1C[C@@H](F)C[C@H]1C#N`, for which the melting point was in the range of 152 to 153 °C.

`Cc1ccc(C(=O)Nc2ccc(C=O)c(C(F)(F)F)c2)cc1Br` had a melting point of 194 to 195 °C.

For `CC(C)Cn1cnc2c(N)nc3cc(CCc4ccccc4)ccc3c21`, the melting point was in the range of 172 to 173 °C.

For `CN(C(=NC#N)Nc1cccnc1)C(NC(=O)c1ccc(Cl)cc1)C(C)(C)C` (configuration not stated), the melting point lay in the range of 127 to 129 °C.

The compound `CCCCCCCCc1ccc(NC2=NCCS2)cc1` came in with a melting point of 82 to 84 °C.

Compound `CC(C(=O)O)c1ccc2nc(N)[nH]c2c1` (configuration not stated) gave a melting point of 300 °C.

`CON1C(C)(C)CC(OC(=O)CCc2cc(-n3nc4ccc(Cl)cc4n3)c(O)c(C(C)(C)C)c2)CC1(C)C` yielded a melting point of 132 to 137 °C.

Regarding `Clc1cccc2c1sc1ncnn12`, the melting point amounted to 203 °C.

In turn, `Cc1nnc(C(=O)CCCCCCOc2ccc(OCc3ccccc3)cc2)o1` came in with a melting point of 118 to 120 °C.

The compound `CCOC(=O)c1c(O)c2ccc(C)nc2n(CC)c1=O` yielded a melting point of 138 to 140 °C.

In turn, `CC(=O)NCCN1CCCc2ccccc21` came in with a melting point of 102 °C.

In turn, `COC(=O)C1=C(C)NC(C)=C(C(=O)OCC2CCCO2)C1c1ccccc1Cl` (configuration not stated) came in with a melting point of 165 to 167 °C.

For `CC(=O)Nc1cc(C(C)(C)C)nn1C(=NOS(=O)(=O)c1ccc(C)cc1)C(C)CN1C(=O)c2ccccc2C1=O` (configuration not stated), the melting point lay within 170 to 172 °C.

Take `Cc1nc2c(OCc3c(Cl)ccc(S(=O)(=O)N4CCC[C@H]4C(=O)NCCCN)c3Cl)cccn2c1Br`: the melting point was 75 °C.

The compound `CNc1cc(NC)nc(NC)n1` registered a melting point of 215 °C.

Compound `O=C(Nc1cc(-c2nc3ccccc3[nH]2)ccn1)c1ccccc1` registered a melting point of 145 to 146 °C.

`COc1cc(N)c(Cl)cc1C(=O)NCC1CCN(CCCCCNC(=O)c2ccc(Cl)cc2)CC1`: the melting point lay in the range of 196 to 198 °C.

Take `Cc1nc2ccccc2n2c(-c3cc(OCC(O)c4ccccn4)ccc3Cl)nnc12` (configuration not stated): the melting point was in the range of 193 to 194 °C.

`O=C1NCC(C(=O)NCCO[N+](=O)[O-])S1` (configuration not stated) returned a melting point of 114 to 115 °C.

`CN(C)C(=O)COc1ccc(I)cc1`: the melting point was 63 to 65 °C.

The compound `Fc1ccc(C(Cl)=NNc2ccccc2)cc1` showed a melting point of 118 to 120 °C.

`CCCn1c(COCC)nc2c(N)nc3cc(OCc4ccccc4)ccc3c21` displayed a melting point of 188 to 189 °C.

For `Oc1cccc(C2CCCN2Cc2ccncc2)c1` (configuration not stated), the melting point was 138 °C.

Take `OCc1ncccc1OCc1ccccc1`: the melting point was 78.7 to 79.2 °C.

In the case of `CCS(=O)(=O)Nc1cc(C(=O)Nc2ccccc2)ccc1OC`, the melting point was in the range of 175 to 177 °C.

Regarding `CCN(CC)C(=O)Cc1ccc(O)c(C(C)C)c1`, the melting point lay within 112 to 113 °C.

In turn, `COC(=O)c1ccc(C(C)(C)C)[nH]c1=O` registered a melting point of 171 to 174 °C.

As for `COCc1nc2cc3c(cc2[nH]1)NC(=O)C3(C)C`, the melting point was 203 to 205 °C.

Compound `CS(=O)(=O)OCN1C=NN(c2c(Cl)cc(C(F)(F)F)cc2Cl)C1` came in with a melting point of 96 to 97 °C.

As to `CCCCc1nc(=O)n2nc(-c3ccco3)cc2[nH]1`, the melting point amounted to 190 °C.

With `Cc1noc(NC(=O)N2CCN(c3nccc(-c4cccc(F)c4)n3)CC2)c1C`, the melting point lay in the range of 161 to 162 °C.

`CCCCC(=O)c1ncc(-c2ccccn2)o1` displayed a melting point of 36 to 37 °C.

The compound `Cc1cccc(NC(=O)NCC(=O)N(CC(=O)N(C)c2ccccc2)c2ccccc2Cl)c1` registered a melting point of 180 °C.

`Nc1cc(Cl)c(Cl)cc1NCCO` returned a melting point of 120 °C.

For `CCOC(=O)c1cc(-c2ccc(OC)cc2)nn(CC2CCCC2)c1=O`, the melting point was in the range of 63.6 to 64.4 °C.

As for `COC(=O)n1nc(-c2cc(Cl)c(C)c(Cl)c2)ccc1=O`, the melting point was in the range of 203 to 206 °C.

`OCCCNc1nc2cc(C(F)(F)F)c(Br)cc2n2ccnc12` returned a melting point of 148 to 161 °C.

Regarding `Nc1cnc2ccsc2c1`, the melting point fell in the range of 121 to 123 °C.

In the case of `CN(C)S(=O)(=O)n1c(C(=S)NCO)nc2cc(Cl)c(Cl)cc21`, the melting point lay within 140 to 142 °C.

In turn, `CCc1c(CN(C)S(=O)(=O)c2cccc(Cl)c2)nn(-c2ccc(Cl)cc2Cl)c1-c1ccc(Br)cc1` registered a melting point of 78 °C.

For the compound `O=C1NCC(c2ccccc2)N1CCCS` (configuration not stated), the melting point is 97 to 99 °C.

Regarding `COC(=O)c1cccc2[nH]nc(S(=O)(=O)NC(C)(C)C)c12`, the melting point lay in the range of 218 to 220 °C.

`CNc1nc(NCc2ccc(NC(=O)c3ccc(Cl)nc3)cc2)c2c(C)cccc2n1` registered a melting point of 233 to 236 °C.

Take `COC(=O)C1OC(OC(=N)C(Cl)(Cl)Cl)C(OC(=O)C(C)C)C(OC(=O)C(C)C)C1OC(=O)C(C)C` (configuration not stated): the melting point was 108 °C.

`COc1ccc2c(c1Br)C(=O)C(=O)N2` yielded a melting point of 250 to 251 °C.

As for `COC(=O)C1(CCCCl)Sc2cc(OC)ccc2OCC1=O` (configuration not stated), the melting point is 64 to 65 °C.

As to `OC[C@@H]1CC=CC[C@@H]1CO`, the melting point lay within 33 to 35 °C.
